Experimental findings from patent publication US5229381A, “Substituted azetidinones as anti-inflammatory and antidegenerative agents” (Merck & Co., Inc., priority 1991, dated 1993) are described below.

The first test addresses T1, human polymorphonuclear leukocyte elastase (Homo sapiens, UniProt P08246).
T1 construct: Crude extract of human polymorphonuclear leukocytes (PMN) containing elastase activity; endogenous in cells; host or cells: human polymorphonuclear leukocytes (crude extract)
T1 sequence (P08246 30-247 limits assumed): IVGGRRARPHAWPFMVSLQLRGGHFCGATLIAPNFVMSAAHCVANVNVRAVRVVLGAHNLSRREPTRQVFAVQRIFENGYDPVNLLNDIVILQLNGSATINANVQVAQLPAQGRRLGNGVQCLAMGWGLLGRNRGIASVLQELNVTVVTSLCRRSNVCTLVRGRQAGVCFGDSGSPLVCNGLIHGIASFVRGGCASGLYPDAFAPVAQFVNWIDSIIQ
The test is described as follows: Inhibition of human polymorphonuclear leukocyte (granulocyte) elastase via hydrolysis of Boc-AAPAN or Boc-AAPVN. It is filed as biochemical. The note with it: pH 7.5, Table V, (per mole per second); read-out: kobs/I, second order rate constant of inactivation of the enzyme.
Procedure: Enzyme Assays for the Inhibition of Human Polymorphonuclear Leukocyte Elastase Via Hydrolysis of N-t-Boc-alanyl-alanyl-prolylalanine-p-nitroanilide (Boc-AAPAN) or N-t-Boc-alanyl-prolylvaline-p-nitroanilide (Boc-AAPVN) Reagent:
0.05M TES (N-tris[hydroxymethyl]methyl-2-amino-ethanesulfonic acid) Buffer, pH 7.5.
0.2 mM Boc-AAPAN or Boc-AAPVN.
To prepare substrate, the solid was first dissolved in 10.0 ml DMSO. Buffer at pH 7.5 was then added to a final volume of 100 ml.
Crude extract of human polymorphonuclear leukocytes (PMN) containing elastase activity.
Inhibitors (azetidinones) to be tested dissolved in DMSO just before use.
To 1.0 ml of 0.2 mM Boc-AAPAN in a cuvette, 0.01-0.1 ml of DMSO with or without inhibitor was added. After mixing, a measurement was taken at 410 mμ to detect any spontaneous hydrolysis due to presence of test compound. 0.05 Milliliters of PMN extract was then added and the ΔOD/min at 410 mμ was measured and recorded. Beckman model 35 spectrophotometer was used.
Results were also expressed as Ki, the micromolar concentration of the inhibitor (μM) giving 50% of the control enzyme activity; or as ^k obs/I which is the second order rate constant in per mole per second for inactivation of the enzyme.
The elastase activity in the crude PMN extract may vary from one preparation to another. A control of each new batch is run, and the volume added in the assay procedure is adjusted according to activity.
`CCC1(CC)C(=O)N(C(=O)N[C@H](Cc2ccccc2)c2ccccc2)[C@H]1Oc1ccc(C(=O)O)cc1` [Table V: 4-COOH; PhCH2; H]: the kinact/KI came out at 25000 M⁻¹ s⁻¹.

For `CCC[C@@H](NC(=O)N1C(=O)C(CC)(CC)[C@@H]1Oc1ccc(C(=O)O)cc1)c1ccccc1` [Table V: 4-COOH; nPr; H], the kinact/KI amounted to 120000 M⁻¹ s⁻¹.

Staying with this test, now noted: pH 7.5, Table VI, (per mole per second); read-out: kobs/I, second order rate constant of inactivation of the enzyme.
For `CC[C@@H](NC(=O)N1C(=O)C(CC)(CC)[C@@H]1Oc1cc(C)c(C(=O)O)c(C)c1)c1ccccc1` [Table VI: 3,5-Me2-4-COOH; Et; H], the kinact/KI came out at 25000 M⁻¹ s⁻¹.

Regarding `CC[C@@H](NC(=O)N1C(=O)C(CC)(CC)[C@@H]1Oc1cccc(CC(=O)O)c1)c1ccccc1` [Table VI: 3-CH2 COOH; Et; H], the kinact/KI amounted to 81000 M⁻¹ s⁻¹.

With `CCC1(CC)C(=O)N(C(=O)N[C@H](C)c2ccccc2)[C@H]1Oc1cccc(CC(=O)O)c1` [Table VI: 3-CH2 COOH; Me; H], the kinact/KI worked out at 5880 M⁻¹ s⁻¹.

Regarding `CCC[C@@H](NC(=O)N1C(=O)C(CC)(CC)[C@@H]1Oc1ccc(CC(=O)O)c(Cl)c1)c1ccc(C)cc1` [Table VI: 3-Cl,4-CH2 COOH; nPr; 4-Me, (4S)-3,3-Diethyl-1-[(R)-α-n-propyl-(4-methyl)benzylaminocarbonyl]-4-[(4-carboxymethyl-3-chloro)phenoxy]azetidin-2-one], the kinact/KI came out at 589000 M⁻¹ s⁻¹.

In the case of `CCC[C@@H](NC(=O)N1C(=O)C(CC)(CC)[C@@H]1Oc1ccc(C(=O)O)c(Cl)c1)c1ccc(C)cc1` [Table VI: 3-Cl,4-COOH; nPr; 4-Me, (4S)-3,3-Diethyl-1-[(R)-α-n-propyl-(4-methyl)benzylaminocarbonyl]-4-[(4-carboxy-3-chloro)phenoxy]-azetidin-2-one], the kinact/KI was determined as 621000 M⁻¹ s⁻¹.

For the compound `CCC[C@@H](NC(=O)N1C(=O)C(CC)(CC)[C@@H]1Oc1ccc(CC(=O)O)c(F)c1)c1ccc(C)cc1` [Table VI: 3-F,4-CH2 COOH; nPr; 4-Me, (4S)-3,3-Diethyl-1-[(R)-α-n-propyl-(4-methyl)benzylaminocarbonyl]-4-[(4-carboxymethyl-3-fluoro)phenoxy]azetidin-2-one], the kinact/KI was found to be 637000 M⁻¹ s⁻¹.

Consider `CCC[C@@H](NC(=O)N1C(=O)C(CC)(CC)[C@@H]1Oc1ccc(C(=O)O)c(F)c1)c1ccc(C)cc1` [Table VI: 3-F,4-COOH; nPr; 4-Me, (4S)-3,3-Diethyl-1-[(R)-α-n-propyl-(4-methyl)benzylaminocarbonyl]-4-[(4-carboxy-3-fluoro)phenoxy]-azetidin-2-one], for which the kinact/KI was 464000 M⁻¹ s⁻¹.

As to `CCC[C@@H](NC(=O)N1C(=O)C(CC)(CC)[C@@H]1Oc1ccc(CC(=O)O)c(C)c1)c1ccc(C)cc1` [Table VI: 3-Me,4-CH2 COOH; nPr; 4-Me], the kinact/KI was 998000 M⁻¹ s⁻¹.

Regarding `CCC[C@@H](NC(=O)N1C(=O)C(CC)(CC)[C@@H]1Oc1ccc(C(=O)O)c(C)c1)c1ccc(C)cc1` [Table VI: 3-Me,4-COOH; nPr; 4-Me, (4S)-3,3-diethyl-1-[(R)-α-n-propyl-(4-methyl)benzylaminocarbonyl]-4-[(4-carboxy-3-methyl)phenoxy]azetidin-2-one], the kinact/KI worked out at 186000 M⁻¹ s⁻¹.

For `CC[C@@H](NC(=O)N1C(=O)C(CC)(CC)[C@@H]1Oc1ccc(C(=O)O)c(O)c1)c1ccccc1` [Table VI: 3-OH-4-COOH; Et; H], the kinact/KI is 125000 M⁻¹ s⁻¹.

Consider `CCC1(CC)C(=O)N(C(=O)N[C@H](C)c2ccccc2)[C@H]1Oc1ccc(CCC(=O)O)cc1` [Table VI: 4-(CH2)2 COOH; Me; H], for which the kinact/KI was found to be 9480 M⁻¹ s⁻¹.

On to `CCC1(CC)C(=O)N(C(=O)N[C@@H](COC)c2ccccc2)[C@H]1Oc1ccc(CC(=O)O)cc1` [Table VI: 4-CH2 COOH; CH2 OMe(R); H], for which the kinact/KI turned out to be 11000 M⁻¹ s⁻¹.

Turning to `CC[C@@H](NC(=O)N1C(=O)C(CC)(CC)[C@@H]1Oc1ccc(CC(=O)O)cc1)c1ccccc1` [Table VI: 4-CH2 COOH; Et; H, (4S)-3,3-diethyl-1-[(R)-α-ethylbenzyl-aminocarbonyl]-4-[(4-carboxymethyl)phenoxy]azetidin-2-one], the kinact/KI amounted to 126000 M⁻¹ s⁻¹.

As to `CCC1(CC)C(=O)N(C(=O)N[C@H](C)c2ccccc2)[C@H]1Oc1ccc(CC(=O)O)cc1` [Table VI: 4-CH2 COOH; Me; H], the kinact/KI amounted to 8370 M⁻¹ s⁻¹.

Turning to `C=CC[C@@H](NC(=O)N1C(=O)C(CC)(CC)[C@@H]1Oc1ccc(CC(=O)O)cc1)c1ccc(C)cc1` [Table VI: 4-CH2 COOH; allyl; 4-Me, (4S)-3,3-diethyl-1-[(R)-α-allyl-(4-methyl)benzyl-aminocarbonyl]-4-[(4-carboxymethyl)phenoxy]azetidin-2-one], the kinact/KI amounted to 664000 M⁻¹ s⁻¹.

In the case of `CCC[C@@H](NC(=O)N1C(=O)C(CC)(CC)[C@@H]1Oc1ccc(CC(=O)O)cc1)c1ccc(C)cc1` [Table VI: 4-CH2 COOH; nPr; 4-Me, (4S)-3,3-diethyl-1-[(R)-α-n-propyl-(4-methyl)-benzylaminocarbonyl]-4-[(4-carboxymethyl)-phenoxy]azetidin-2-one], the kinact/KI was 557000 M⁻¹ s⁻¹.

As to `CCC[C@@H](NC(=O)N1C(=O)C(CC)(CC)[C@@H]1Oc1ccc(CC(=O)O)cc1)c1ccccc1` [Table VI: 4-CH2 COOH; nPr; H, (4S)-3,3-diethyl-1-[(R)-α-n-propylbenzylamino-carbonyl]-4-[(4-carboxymethyl)phenoxy]azetidin-2-one], the kinact/KI is 188000 M⁻¹ s⁻¹.

Take `CCC1(CC)C(=O)N(C(=O)N[C@H](C)c2ccccc2)[C@H]1Oc1ccc(C=CC(=O)O)cc1` [Table VI: 4-CHCHCOOH; Me; H]: the kinact/KI stood at 9100 M⁻¹ s⁻¹.

Turning to `CC[C@@H](NC(=O)N1C(=O)C(CC)(CC)[C@@H]1Oc1ccc(C(=O)CCC(=O)O)cc1)c1ccccc1` [Table VI: 4-CO(CH2)2 COOH; Et; H], the kinact/KI stood at 272000 M⁻¹ s⁻¹.

For the compound `CCC1(CC)C(=O)N(C(=O)N[C@H](C)c2ccccc2)[C@H]1Oc1ccc(C(=O)CCC(=O)O)cc1` [Table VI: 4-CO(CH2)2COOH; Me; H], the kinact/KI stood at 37100 M⁻¹ s⁻¹.

On to `CCC1(CC)C(=O)N(C(=O)N[C@@H](COC)c2ccccc2)[C@H]1Oc1ccc(C(=O)O)cc1` [Table VI: 4-COOH; CH2 OMe(R); H], for which the kinact/KI was found to be 6980 M⁻¹ s⁻¹.

On to `CCC1(CC)C(=O)N(C(=O)N[C@H](COC)c2ccccc2)[C@H]1Oc1ccc(C(=O)O)cc1` [Table VI: 4-COOH; CH2 OMe(s); H], for which the kinact/KI turned out to be 6980 M⁻¹ s⁻¹.

As for `CC[C@@H](NC(=O)N1C(=O)C(CC)(CC)[C@@H]1Oc1ccc(C(=O)O)cc1)c1ccc(-c2ccccc2)cc1` [Table VI: 4-COOH; Et; 4-Ph], the kinact/KI turned out to be 26400 M⁻¹ s⁻¹.

For `CC[C@@H](NC(=O)N1C(=O)C(CC)(CC)[C@@H]1Oc1ccc(C(=O)O)cc1)c1ccccc1` [Table VI: 4-COOH; Et; H], the kinact/KI came to 76200 M⁻¹ s⁻¹.

For the compound `CCC1(CC)C(=O)N(C(=O)N[C@@H](C)c2ccc(-c3ccccc3)cc2)[C@H]1Oc1ccc(C(=O)O)cc1` [Table VI: 4-COOH; Me(s); 4-Ph], the kinact/KI turned out to be 49200 M⁻¹ s⁻¹.

Take `CCC1(CC)C(=O)N(C(=O)N[C@H](C)c2ccc(-c3ccccc3Cl)cc2)[C@H]1Oc1ccc(C(=O)O)cc1` [Table VI: 4-COOH; Me; 4-(2'-ClPh)]: the kinact/KI is 245000 M⁻¹ s⁻¹.

As to `CCC1(CC)C(=O)N(C(=O)N[C@H](C)c2ccc(C)cc2)[C@H]1Oc1ccc(C(=O)O)cc1` [Table VI: 4-COOH; Me; 4-Me], the kinact/KI turned out to be 10700 M⁻¹ s⁻¹.

On to `CCC1(CC)C(=O)N(C(=O)N[C@H](C)c2ccc(-c3ccccc3)cc2)[C@H]1Oc1ccc(C(=O)O)cc1` [Table VI: 4-COOH; Me; 4-Ph], for which the kinact/KI came to 74000 M⁻¹ s⁻¹.

In the case of `CCC1(CC)C(=O)N(C(=O)N[C@H](C)c2ccccc2)[C@H]1Oc1ccc(C(=O)O)cc1` [Table VI: 4-COOH; Me; H], the kinact/KI stood at 4020 M⁻¹ s⁻¹.
